PubChem BioAssay AID2060626 (Molecular Pharmacology Branch, DTP, NCI, 2025)

These compounds were tested on 168753-222-R-J1-PDC complex spheroid viability (assay: Anticancer human tumor 168753-222-R-J1-PDC patient-derived bladder carcinoma cell line growth inhibition [CLK]). Conditions: second compound 10 µM; first compound 0.0316 µM; hits give low values.
How it was run: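 Multi-cell-type spheroids combined patient-derived tumor cells with HUVEC endothelial cells and human mesenchymal stem cells. Paired agents were dosed in half-log steps down from about clinical Cmax, or from 10 microM where Cmax was unknown.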
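Note: luminescence signal used as surrogate for viable cell amount; viability measured after seven days of drug exposure; 100% = DMSO vehicle control wells.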

| SMILES | viability, T/C [%] |
| --- | --- |
| CCCS(=O)(=O)Nc1ccc(F)c(C(=O)c2c[nH]c3ncc(-c4ccc(Cl)cc4)cc23)c1F + CNC(=O)c1ccc(Nc2nc(OC3CCCC3)c3c(-c4ccc5nc(C)oc5c4)c[nH]c3n2)c(OC)c1 | 20 |
| COC1C=CCC(C)C(C)S(=O)(=O)NC(=O)c2ccc3c(c2)N(CC2CCC21)CC1(CCCc2cc(Cl)ccc21)CO3 (configuration not stated) + CNC(=O)c1ccc(Nc2nc(OC3CCCC3)c3c(-c4ccc5nc(C)oc5c4)c[nH]c3n2)c(OC)c1 | 18 |

Same assay, conditions: second compound 10 µM; first compound 0.1 µM; hits give low values

| SMILES | viability, T/C [%] |
| --- | --- |
| COc1ccc([C@@H](O)c2cc(-c3ncnc4cc(N5CCOCC5)ccc34)c(F)cc2Cl)nn1 + CN1CCN(c2cc(C(=O)Nc3cc4cc(-c5cnn(C)c5)ccc4cn3)ccn2)CC1 | 0.81 |
| COc1cccc2c1C(=O)c1c(O)c3c(c(O)c1C2=O)CC(O)(C(=O)CO)CC3OC1CC(N)C(O)C(C)O1 (configuration not stated) + CN1CCN(c2cc(C(=O)Nc3cc4cc(-c5cnn(C)c5)ccc4cn3)ccn2)CC1 | 0.26 |
| C=CC(=O)N1CCN(c2nc(=O)n(-c3c(C)ccnc3C(C)C)c3nc(-c4c(O)cccc4F)c(F)cc23)C(C)C1 (configuration not stated) + CNC(=O)c1ccc(Nc2nc(OC3CCCC3)c3c(-c4ccc5nc(C)oc5c4)c[nH]c3n2)c(OC)c1 | 23.5 |
| CCCS(=O)(=O)Nc1ccc(F)c(C(=O)c2c[nH]c3ncc(-c4ccc(Cl)cc4)cc23)c1F + CNC(=O)c1ccc(Nc2nc(OC3CCCC3)c3c(-c4ccc5nc(C)oc5c4)c[nH]c3n2)c(OC)c1 | 31.2 |
| COC1C=CCC(C)C(C)S(=O)(=O)NC(=O)c2ccc3c(c2)N(CC2CCC21)CC1(CCCc2cc(Cl)ccc21)CO3 (configuration not stated) + CNC(=O)c1ccc(Nc2nc(OC3CCCC3)c3c(-c4ccc5nc(C)oc5c4)c[nH]c3n2)c(OC)c1 | 15.3 |

Same assay, conditions: second compound 10 µM; first compound 0.316 µM; hits give low values

| SMILES | viability, T/C [%] |
| --- | --- |
| COc1ccc([C@@H](O)c2cc(-c3ncnc4cc(N5CCOCC5)ccc34)c(F)cc2Cl)nn1 + CN1CCN(c2cc(C(=O)Nc3cc4cc(-c5cnn(C)c5)ccc4cn3)ccn2)CC1 | 1.23 |
| COc1cccc2c1C(=O)c1c(O)c3c(c(O)c1C2=O)CC(O)(C(=O)CO)CC3OC1CC(N)C(O)C(C)O1 (configuration not stated) + CN1CCN(c2cc(C(=O)Nc3cc4cc(-c5cnn(C)c5)ccc4cn3)ccn2)CC1 | 0.34 |
| C=CC(=O)N1CCN(c2nc(=O)n(-c3c(C)ccnc3C(C)C)c3nc(-c4c(O)cccc4F)c(F)cc23)C(C)C1 (configuration not stated) + CNC(=O)c1ccc(Nc2nc(OC3CCCC3)c3c(-c4ccc5nc(C)oc5c4)c[nH]c3n2)c(OC)c1 | 20.9 |
| CCCS(=O)(=O)Nc1ccc(F)c(C(=O)c2c[nH]c3ncc(-c4ccc(Cl)cc4)cc23)c1F + CNC(=O)c1ccc(Nc2nc(OC3CCCC3)c3c(-c4ccc5nc(C)oc5c4)c[nH]c3n2)c(OC)c1 | 29.7 |
| COC1C=CCC(C)C(C)S(=O)(=O)NC(=O)c2ccc3c(c2)N(CC2CCC21)CC1(CCCc2cc(Cl)ccc21)CO3 (configuration not stated) + CNC(=O)c1ccc(Nc2nc(OC3CCCC3)c3c(-c4ccc5nc(C)oc5c4)c[nH]c3n2)c(OC)c1 | 16.7 |

Same assay, conditions: second compound 10 µM; first compound 1 µM; hits give low values

| SMILES | viability, T/C [%] |
| --- | --- |
| COc1ccc([C@@H](O)c2cc(-c3ncnc4cc(N5CCOCC5)ccc34)c(F)cc2Cl)nn1 + CN1CCN(c2cc(C(=O)Nc3cc4cc(-c5cnn(C)c5)ccc4cn3)ccn2)CC1 | 0.1 |
| COc1cccc2c1C(=O)c1c(O)c3c(c(O)c1C2=O)CC(O)(C(=O)CO)CC3OC1CC(N)C(O)C(C)O1 (configuration not stated) + CN1CCN(c2cc(C(=O)Nc3cc4cc(-c5cnn(C)c5)ccc4cn3)ccn2)CC1 | 0.08 |
| C=CC(=O)N1CCN(c2nc(=O)n(-c3c(C)ccnc3C(C)C)c3nc(-c4c(O)cccc4F)c(F)cc23)C(C)C1 (configuration not stated) + CNC(=O)c1ccc(Nc2nc(OC3CCCC3)c3c(-c4ccc5nc(C)oc5c4)c[nH]c3n2)c(OC)c1 | 24.5 |
| CCCS(=O)(=O)Nc1ccc(F)c(C(=O)c2c[nH]c3ncc(-c4ccc(Cl)cc4)cc23)c1F + CNC(=O)c1ccc(Nc2nc(OC3CCCC3)c3c(-c4ccc5nc(C)oc5c4)c[nH]c3n2)c(OC)c1 | 20.1 |
| COC1C=CCC(C)C(C)S(=O)(=O)NC(=O)c2ccc3c(c2)N(CC2CCC21)CC1(CCCc2cc(Cl)ccc21)CO3 (configuration not stated) + CNC(=O)c1ccc(Nc2nc(OC3CCCC3)c3c(-c4ccc5nc(C)oc5c4)c[nH]c3n2)c(OC)c1 | 10.5 |

Same assay, conditions: second compound 10 µM; first compound 3.16 µM; hits give low values

| SMILES | viability, T/C [%] |
| --- | --- |
| COc1ccc([C@@H](O)c2cc(-c3ncnc4cc(N5CCOCC5)ccc34)c(F)cc2Cl)nn1 + CN1CCN(c2cc(C(=O)Nc3cc4cc(-c5cnn(C)c5)ccc4cn3)ccn2)CC1 | 0.4 |
| COc1cccc2c1C(=O)c1c(O)c3c(c(O)c1C2=O)CC(O)(C(=O)CO)CC3OC1CC(N)C(O)C(C)O1 (configuration not stated) + CN1CCN(c2cc(C(=O)Nc3cc4cc(-c5cnn(C)c5)ccc4cn3)ccn2)CC1 | 0.95 |
| C=CC(=O)N1CCN(c2nc(=O)n(-c3c(C)ccnc3C(C)C)c3nc(-c4c(O)cccc4F)c(F)cc23)C(C)C1 (configuration not stated) + CNC(=O)c1ccc(Nc2nc(OC3CCCC3)c3c(-c4ccc5nc(C)oc5c4)c[nH]c3n2)c(OC)c1 | 19.4 |
| CCCS(=O)(=O)Nc1ccc(F)c(C(=O)c2c[nH]c3ncc(-c4ccc(Cl)cc4)cc23)c1F + CNC(=O)c1ccc(Nc2nc(OC3CCCC3)c3c(-c4ccc5nc(C)oc5c4)c[nH]c3n2)c(OC)c1 | 27.8 |
| COC1C=CCC(C)C(C)S(=O)(=O)NC(=O)c2ccc3c(c2)N(CC2CCC21)CC1(CCCc2cc(Cl)ccc21)CO3 (configuration not stated) + CNC(=O)c1ccc(Nc2nc(OC3CCCC3)c3c(-c4ccc5nc(C)oc5c4)c[nH]c3n2)c(OC)c1 | 11.3 |

Same assay, conditions: second compound 10 µM; first compound 10 µM; hits give low values

| SMILES | viability, T/C [%] |
| --- | --- |
| COc1ccc([C@@H](O)c2cc(-c3ncnc4cc(N5CCOCC5)ccc34)c(F)cc2Cl)nn1 + CN1CCN(c2cc(C(=O)Nc3cc4cc(-c5cnn(C)c5)ccc4cn3)ccn2)CC1 | 0.47 |
| COc1cccc2c1C(=O)c1c(O)c3c(c(O)c1C2=O)CC(O)(C(=O)CO)CC3OC1CC(N)C(O)C(C)O1 (configuration not stated) + CN1CCN(c2cc(C(=O)Nc3cc4cc(-c5cnn(C)c5)ccc4cn3)ccn2)CC1 | 0.95 |
| C=CC(=O)N1CCN(c2nc(=O)n(-c3c(C)ccnc3C(C)C)c3nc(-c4c(O)cccc4F)c(F)cc23)C(C)C1 (configuration not stated) + CNC(=O)c1ccc(Nc2nc(OC3CCCC3)c3c(-c4ccc5nc(C)oc5c4)c[nH]c3n2)c(OC)c1 | 16.4 |
| CCCS(=O)(=O)Nc1ccc(F)c(C(=O)c2c[nH]c3ncc(-c4ccc(Cl)cc4)cc23)c1F + CNC(=O)c1ccc(Nc2nc(OC3CCCC3)c3c(-c4ccc5nc(C)oc5c4)c[nH]c3n2)c(OC)c1 | 24 |
| COC1C=CCC(C)C(C)S(=O)(=O)NC(=O)c2ccc3c(c2)N(CC2CCC21)CC1(CCCc2cc(Cl)ccc21)CO3 (configuration not stated) + CNC(=O)c1ccc(Nc2nc(OC3CCCC3)c3c(-c4ccc5nc(C)oc5c4)c[nH]c3n2)c(OC)c1 | 11.4 |
